In patent US11427869B2, “T cell balance gene expression, compositions of matters and methods of use thereof” (THE BROAD INSTITUTE, INC., priority 2015, dated 2022):

Tested on: WT Th17 cells
Assay: Nanostring nCounter Th17 codeset (312 genes), SFA- or control-treated WT Th17 cells
Assay type: cell-based, mouse
Conditions: WT Th17 cells + SFA
Excerpt: Applicants studied the contribution of lipid saturation to Th17 cell pathogenicity. […] Applicants analyzed the expression of a 312 gene signature of Th17 cell differentiation and function (Yosef et al., 2013) in SFA- or control-treated WT Th17 cells and in PUFA- or control-treated CD5L−/− Th17 cells differentiated with TGF-81+IL-6.
T cell differentiation culture. Naïve CD4+CD44−CD62L+CD25− T cells or Effector memory CD4+CD44+CD62L− were sorted using BD FACSAria sorter and activated with plate-bound anti-CD3 and anti-CD28 antibodies (both at 2 μg/ml) in the presence of cytokines at a concentration of 2.5×10^5 cells/ml. For Th17 differentiation: 2 ng/ml of rhTGFβ1, 2 ng/ml of rhTGFβ3, 25 ng/ml rmIL-6, 20 ng/ml rmIL-18 (all from Miltenyi Biotec) and 20 ng/ml rmIL-23 (R & D systems) were used at various combinations as specified in figures. For Th1 differentiation, 20 ng/ml rmIL-12 (R & D systems); for Th2 differentiation 20 ng/ml rmIL-4 (Miltenyi Biotec); for iTreg differentiation, 2.5 ng/ml of rhTGFβ1 were used (Miltenyi Biotec). For differentiation experiments, cells were harvested at 48 hours. For restimulation experiments, cells were differentiated for 48 hours and resuspended in fresh media with no additional cytokines for 48-72 hours. Cells were re-stimulated with PMA/ionomycin for four hours before analysis for cytokines by intracellular cytokine staining. For experiments with exogenous fatty acid, fatty acids were purchased and resuspended first with serum-free media containing BSA prior being added to culture.
Nanostring nCounter. Nanostring nCounter platform (NanoString Technologies) is used to measure the number of RNA transcripts in RNA samples (FIG. 16I, FIG. 18D). A codeset containing 312 signature genes of Th17 cell differentiation and function as well as 4 additional house-keeping genes were custom-made (Yosef et al., 2013) and used in these experiments. Experimental procedures as detailed by the manufacturer is strictly followed.

In the case of `CCCCCCCCCCCCCCCC(=O)O` [SFA, palmitic acid], the “ATF2 expression (Nanostring), normalized to WT” value is reported as 1.18, the “Abcg2 expression (Nanostring), normalized to WT” value is reported as 0.77 and the “Acvr2a expression (Nanostring), normalized to WT” value is reported as 0.66. The “Ahr expression (Nanostring), normalized to WT” value was 0.83, the “Arl5a expression (Nanostring), normalized to WT” value was 0.93 and the “Atf4 expression (Nanostring), normalized to WT” value was 1.11. For the same compound, the “BC021614 expression (Nanostring), normalized to WT” value was 0.96, the “Bcl2l11 expression (Nanostring), normalized to WT” value was 0.82 and the “Bcl3 expression (Nanostring), normalized to WT” value was 0.85. For the same compound, the “Bcl11b expression (Nanostring), normalized to WT” value was 0.82, the “Bhlhe40 expression (Nanostring), normalized to WT” value was 1.22 and the “Casp3 expression (Nanostring), normalized to WT” value was 1.21. For the same compound, the “Casp4 expression (Nanostring), normalized to WT” value was 0.95, the “Ccl1 expression (Nanostring), normalized to WT” value was 0.58 and the “Ccl20 expression (Nanostring), normalized to WT” value was 0.31. The “Ccr4 expression (Nanostring), normalized to WT” value was 0.61, the “Ccr8 expression (Nanostring), normalized to WT” value was 0.74 and the “Cd9 expression (Nanostring), normalized to WT” value was 0.84. The “Cd70 expression (Nanostring), normalized to WT” value was 0.89, the “Cd83 expression (Nanostring), normalized to WT” value was 1.23 and the “Cd86 expression (Nanostring), normalized to WT” value was 0.99. For the same compound, the “Cd247 expression (Nanostring), normalized to WT” value was 0.81, the “Clcf1 expression (Nanostring), normalized to WT” value was 0.74 and the “Csf2 expression (Nanostring), normalized to WT” value was 0.97. The “Ctla4 expression (Nanostring), normalized to WT” value was 0.81, the “Cxcl10 expression (Nanostring), normalized to WT” value was 3.83 and the “Cxcr3 expression (Nanostring), normalized to WT” value was 0.48. For the same compound, the “Cxcr4 expression (Nanostring), normalized to WT” value was 1.00, the “Cxcr5 expression (Nanostring), normalized to WT” value was 1.17 and the “EBF1 expression (Nanostring), normalized to WT” value was 0.51. The “Egr2 expression (Nanostring), normalized to WT” value was 1.53, the “Elk3 expression (Nanostring), normalized to WT” value was 0.58 and the “Ercc5 expression (Nanostring), normalized to WT” value was 0.90. The “Etv6 expression (Nanostring), normalized to WT” value was 0.94, the “Faim3 expression (Nanostring), normalized to WT” value was 0.61 and the “Fli1 expression (Nanostring), normalized to WT” value was 0.84. The “Flna expression (Nanostring), normalized to WT” value was 0.65, the “Foxo1 expression (Nanostring), normalized to WT” value was 0.79 and the “Foxp1 expression (Nanostring), normalized to WT” value was 0.77. For the same compound, the “Foxp3 expression (Nanostring), normalized to WT” value was 0.71, the “Frmd4b expression (Nanostring), normalized to WT” value was 1.05 and the “Fxd7 expression (Nanostring), normalized to WT” value was 1.07. The “Gap43 expression (Nanostring), normalized to WT” value was 1.30, the “Gem expression (Nanostring), normalized to WT” value was 1.00 and the “Gimap5 expression (Nanostring), normalized to WT” value was 1.05. The “Gja1 expression (Nanostring), normalized to WT” value was 0.94, the “Gmfg expression (Nanostring), normalized to WT” value was 0.62 and the “Grn expression (Nanostring), normalized to WT” value was 0.78. The “Gusb expression (Nanostring), normalized to WT” value was 1.02, the “Hip1r expression (Nanostring), normalized to WT” value was 0.70 and the “IL-33 expression (Nanostring), normalized to WT” value was 1.33. The “Ifih1 expression (Nanostring), normalized to WT” value was 0.87, the “Ifng expression (Nanostring), normalized to WT” value was 0.55 and the “Ikzf3 expression (Nanostring), normalized to WT” value was 0.82. For the same compound, the “Il1r1 expression (Nanostring), normalized to WT” value was 0.61, the “Il2ra expression (Nanostring), normalized to WT” value was 0.71 and the “Il3 expression (Nanostring), normalized to WT” value was 2.11. The “Il4ra expression (Nanostring), normalized to WT” value was 0.75, the “Il6st expression (Nanostring), normalized to WT” value was 0.87 and the “Il7r expression (Nanostring), normalized to WT” value was 0.85. For the same compound, the “Il10 expression (Nanostring), normalized to WT” value was 0.12, the “Il10ra expression (Nanostring), normalized to WT” value was 0.71 and the “Il12rb1 expression (Nanostring), normalized to WT” value was 0.39. For the same compound, the “Il12rb2 expression (Nanostring), normalized to WT” value was 0.88, the “Il17a expression (Nanostring), normalized to WT” value was 0.96 and the “Il17f expression (Nanostring), normalized to WT” value was 0.90. The “Il21 expression (Nanostring), normalized to WT” value was 1.64, the “Il23r expression (Nanostring), normalized to WT” value was 1.12 and the “Il27ra expression (Nanostring), normalized to WT” value was 0.70. The “Inhba expression (Nanostring), normalized to WT” value was 0.60 and the “Irf4 expression (Nanostring), normalized to WT” value was 0.68.
